The source of these data is US20240010987A1, “IN VITRO LIVER DISEASE MODEL USING TRIPLE CO-CULTURE AND PREPARATION METHOD THEREOF” (FUTURE MEDICINE CO., LTD., priority 2020, published 2024).

Test [1] relates to HuH-7:LX-2:ImKC triple co-culture. Description: Marker changes in triple co-culture in vitro liver disease model (steatosis, inflammation, fibrosis) after drug treatment. It is filed as cell-based, human (HuH-7, mouse (ImKC). As to conditions: hepatic steatosis (FFA), inflammation (FFA+LPS) or fibrosis (FFA+TGF-β1) induced; FIGS. 5 to 14. The protocol: After the cells were fixed for 1 hour for direct co-culture, a 0.4 μm pore size cell culture insert (Corning™) was positioned on top of a direct co-culture dish for indirect co-culture of the corresponding cells with an immortalized mouse Kupffer cell line (ImKC). The cell suspensions of the immortalized mouse Kupffer cell line (ImKC) were added to the positioned cell culture insert (Corning™) such that the number of cells per area was 15,000 cells/cm^2, and the cells were cultured in a CO2 incubator (Thermo Scientific™) under 37° C. and 5% CO2 conditions for 24 hours (FIG. 1).
The cell culture dishes for each experimental group shown in the following Table 3, which was cultured for 24 hours in a CO2 incubator (Thermo Scientific™) under 37° C. and 5% CO2 conditions at 24 hours before FFA treatment, were taken out, the cell culture medium was carefully discarded, and a co-culture medium including 1,000 μM FFA (oleic:palmitic molar ratio 2:1) was added thereto. After FFA treatment, the cell culture dishes were incubated in a CO2 incubator (Thermo Scientific™) under 37° C. and 5% CO2 conditions for 144 hours. The co-culture medium including FFA was replaced at 48 and 96 hours after FFA treatment (FIG. 4).
The cell culture dishes for each experimental group shown in Table 3, which was cultured in a CO2 incubator (Thermo Scientific™) under 37° C. and 5% CO2 conditions at 72 and 96 hours before LPS treatment, were taken out, the cell culture medium was carefully discarded, and a culture medium including 0.5 ng/ml LPS was added to 1,000 μM FFA (oleic:palmitic molar ratio 2:1). After LPS treatment, the cell culture dishes were incubated in a CO2 incubator (Thermo Scientific™) under 37° C. and 5% CO2 conditions for 48 and 72 hours. […]
The absorbance of each cell culture treated with FM101 and the control material was measured in the same manner as in Experimental Example 3-1.
The absorbance of each cell culture treated with FM101 and the control material was measured in the same manner as in Experimental Example 3-2. […]

In a further test the test system is A3 adenosine receptor. As to conditions: in vivo experiments, EXCLI J. 2020 Feb. 12; 19:187-200; cited from earlier work.

For `CNC(=O)[C@H]1O[C@@H](n2cnc3c(NCc4cccc(I)c4)nc(Cl)nc32)[C@H](O)[C@@H]1O` [CF102, Namodenoson], the “responsiveness of markers in triple co-culture cells on drug treatment, compared to directly co-cultured cells” value in test [1] is “higher responsiveness and more concentration-dependent responsiveness”.
`OC1CSC(n2cnc3c(NCc4cccc(Cl)c4)nc(Cl)nc32)C1O` (stereo not shown) [FM101]: the “responsiveness of markers in triple co-culture cells on drug treatment, compared to directly co-cultured cells” value in test [1] is “higher responsiveness and more concentration-dependent responsiveness”. Besides, in the test on A3 adenosine receptor, the “modulation of A3 adenosine receptor as A3AR ligand” value is recorded as “modulates an A3 adenosine receptor”.
For the molecule `CC(C)c1cc(Oc2c(Cl)cc(-n3nc(C#N)c(=O)[nH]c3=O)cc2Cl)n[nH]c1=O` [MGL-3196, Resmetirom], the “responsiveness of markers in triple co-culture cells on drug treatment, compared to directly co-cultured cells” value in test [1] was “higher responsiveness and more concentration-dependent responsiveness”.
